Data taken from PMC6003702 (Biopolymers, 2017).
Where two headings read alike, the source gives them in different places. Where a SMILES comes first, the peptide text is derived from it.

Columns and labels:
mouse DOR = mouse DOR (Mus musculus, UniProt P32300); test: Radioligand binding assay, DOR
cloned rat KOR = cloned rat KOR (Rattus norvegicus, UniProt P34975); test: Radioligand binding assay, KOR; settings: SEM
cloned rat MOR = cloned rat MOR (Rattus norvegicus, UniProt P33535); test: Radioligand binding assay, MOR; settings: SEM
Sequence of cloned rat MOR (P33535 whole entry): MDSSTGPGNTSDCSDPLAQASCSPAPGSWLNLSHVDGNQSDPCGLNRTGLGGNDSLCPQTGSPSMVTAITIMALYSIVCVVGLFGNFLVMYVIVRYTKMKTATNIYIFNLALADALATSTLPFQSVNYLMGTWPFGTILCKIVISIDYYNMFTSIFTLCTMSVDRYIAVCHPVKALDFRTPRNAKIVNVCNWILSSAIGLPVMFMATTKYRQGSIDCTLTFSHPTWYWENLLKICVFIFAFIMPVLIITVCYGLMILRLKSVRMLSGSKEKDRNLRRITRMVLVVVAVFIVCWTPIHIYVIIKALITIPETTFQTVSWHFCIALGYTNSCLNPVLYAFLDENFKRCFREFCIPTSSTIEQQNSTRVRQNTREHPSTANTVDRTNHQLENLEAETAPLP

cloned KOR = cloned KOR (Rattus norvegicus, UniProt P34975); test: [35S]GTPγS assay at KOR; type: biochemical; settings: SEM
Sequence of cloned KOR (P34975 whole entry): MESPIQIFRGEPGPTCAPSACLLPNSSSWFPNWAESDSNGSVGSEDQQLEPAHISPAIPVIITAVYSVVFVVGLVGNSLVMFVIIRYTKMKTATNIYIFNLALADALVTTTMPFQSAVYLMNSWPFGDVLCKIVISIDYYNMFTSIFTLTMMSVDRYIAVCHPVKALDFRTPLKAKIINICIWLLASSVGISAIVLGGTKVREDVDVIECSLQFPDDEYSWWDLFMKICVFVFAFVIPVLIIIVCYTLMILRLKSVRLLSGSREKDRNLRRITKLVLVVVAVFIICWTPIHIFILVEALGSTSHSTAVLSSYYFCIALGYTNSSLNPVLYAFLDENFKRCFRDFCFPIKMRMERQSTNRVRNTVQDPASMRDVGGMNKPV

Sequence of cloned rat KOR (P34975 whole entry): as above
Sequence of mouse DOR (P32300 whole entry): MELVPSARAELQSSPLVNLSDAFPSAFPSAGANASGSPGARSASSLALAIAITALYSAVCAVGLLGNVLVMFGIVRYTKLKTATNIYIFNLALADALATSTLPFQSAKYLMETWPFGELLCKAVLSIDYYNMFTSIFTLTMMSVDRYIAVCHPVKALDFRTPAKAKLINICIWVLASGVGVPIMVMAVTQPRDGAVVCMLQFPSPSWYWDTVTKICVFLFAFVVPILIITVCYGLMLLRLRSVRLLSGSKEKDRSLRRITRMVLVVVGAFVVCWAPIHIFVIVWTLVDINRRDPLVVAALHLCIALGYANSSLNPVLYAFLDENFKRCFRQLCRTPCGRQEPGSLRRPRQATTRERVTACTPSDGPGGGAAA

SMILES | Ki (mouse DOR; SEM) [nM] | Ki (cloned rat KOR) [nM] | Ki (cloned rat MOR) [nM] | EC50 (cloned KOR) [nM] | Ki (mouse DOR) [nM]
CC(C)C[C@H](NC(=O)[C@H](Cc1ccccc1)NC(=O)CNC(=O)CNC(=O)[C@@H](N)Cc1ccc(O)cc1)C(=O)N[C@@H](C)C(=O)N[C@@H](CCCNC(=N)N)C(=O)N[C@@H](CCC(N)=O)C(=O)N[C@@H](Cc1ccccc1)C(=O)N[C@@H](CCCCN)C(=O)N[C@H](C(=O)N[C@H](C(=O)N[C@H](C(N)=O)[C@@H](C)O)C(C)C)C(C)C [Compound 4] (H-YGGFLARQFKVVT-NH2) | 25.7 ± 1.6 | 43.1 ± 2.8 | 14.1 ± 3 | 116 ± 21 | –
CC(C)C[C@H](NC(=O)[C@H](Cc1ccccc1)NC(=O)CNC(=O)CNC(=O)[C@@H](N)Cc1ccc(O)cc1)C(=O)N[C@@H](CCCNC(=N)N)C(=O)N[C@@H](CCCNC(=N)N)C(=O)N[C@@H](CCC(N)=O)C(=O)N[C@@H](Cc1ccccc1)C(=O)N[C@@H](CCCCN)C(=O)N[C@@H](C)C(=O)N[C@H](C(=O)N[C@H](C(N)=O)[C@@H](C)O)C(C)C [Compound 9] (H-YGGFLRRQFKAVT-NH2) | 58.8 ± 3.4 | 12.4 ± 1.6 | 7.45 ± 2.69 | 8.79 ± 2.2 | –
CC(C)C[C@H](NC(=O)[C@H](Cc1ccccc1)NC(=O)CNC(=O)CNC(=O)[C@H](C)N)C(=O)N[C@@H](CCCNC(=N)N)C(=O)N[C@@H](CCCNC(=N)N)C(=O)N[C@@H](CCC(N)=O)C(=O)N[C@@H](Cc1ccccc1)C(=O)N[C@@H](CCCCN)C(=O)N[C@H](C(=O)N[C@H](C(=O)N[C@H](C(N)=O)[C@@H](C)O)C(C)C)C(C)C [Compound 1] (H-AGGFLRRQFKVVT-NH2) | – | 886 ± 123 | 651 ± 70 | 2650 ± 890 | > 10000
CC(C)C[C@H](NC(=O)[C@H](Cc1ccccc1)NC(=O)CNC(=O)CNC(=O)[C@@H](N)Cc1ccc(O)cc1)C(=O)N[C@@H](CCCNC(=N)N)C(=O)N[C@@H](CCCNC(=N)N)C(=O)N[C@@H](CCC(N)=O)C(=O)N[C@@H](Cc1ccccc1)C(=O)N[C@@H](C)C(=O)N[C@H](C(=O)N[C@H](C(=O)N[C@H](C(N)=O)[C@@H](C)O)C(C)C)C(C)C [Compound 8] (H-YGGFLRRQFAVVT-NH2) | 119 ± 16 | 31.6 ± 6 | 40.5 ± 3.9 | 6.36 ± 1.7 | –
CC(C)C[C@H](NC(=O)[C@H](C)NC(=O)CNC(=O)CNC(=O)[C@@H](N)Cc1ccc(O)cc1)C(=O)N[C@@H](CCCNC(=N)N)C(=O)N[C@@H](CCCNC(=N)N)C(=O)N[C@@H](CCC(N)=O)C(=O)N[C@@H](Cc1ccccc1)C(=O)N[C@@H](CCCCN)C(=O)N[C@H](C(=O)N[C@H](C(=O)N[C@H](C(N)=O)[C@@H](C)O)C(C)C)C(C)C [Compound 2] (H-YGGALRRQFKVVT-NH2) | – | 1510 ± 221 | 1040 ± 100 | 1180 ± 330 | > 10000
CC(C)C[C@H](NC(=O)[C@H](Cc1ccccc1)NC(=O)CNC(=O)CNC(=O)[C@@H](N)Cc1ccc(O)cc1)C(=O)N[C@@H](CCCNC(=N)N)C(=O)N[C@@H](CCCNC(=N)N)C(=O)N[C@@H](CCC(N)=O)C(=O)N[C@@H](Cc1ccccc1)C(=O)N[C@@H](CCCCN)C(=O)N[C@H](C(=O)N[C@H](C(=O)N[C@H](C(N)=O)[C@@H](C)O)C(C)C)C(C)C [Dyn B amide, reference compound] | 43.2 ± 1.6 | 6.3 ± 1.68 | 8.05 ± 2.87 | 9.14 ± 1.96 | –
CC(C)C[C@H](NC(=O)[C@H](Cc1ccccc1)NC(=O)CNC(=O)CNC(=O)[C@@H](N)Cc1ccc(O)cc1)C(=O)N[C@@H](CCCNC(=N)N)C(=O)N[C@@H](C)C(=O)N[C@@H](CCC(N)=O)C(=O)N[C@@H](Cc1ccccc1)C(=O)N[C@@H](CCCCN)C(=O)N[C@H](C(=O)N[C@H](C(=O)N[C@H](C(N)=O)[C@@H](C)O)C(C)C)C(C)C [Compound 5] (H-YGGFLRAQFKVVT-NH2) | 67.5 ± 8.3 | 82.4 ± 9.3 | 16.7 ± 5.1 | 802 ± 290 | –
CC(C)C[C@H](NC(=O)[C@H](Cc1ccccc1)NC(=O)CNC(=O)CNC(=O)[C@@H](N)Cc1ccc(O)cc1)C(=O)N[C@@H](CCCNC(=N)N)C(=O)N[C@@H](CCCNC(=N)N)C(=O)N[C@@H](CCC(N)=O)C(=O)N[C@@H](C)C(=O)N[C@@H](CCCCN)C(=O)N[C@H](C(=O)N[C@H](C(=O)N[C@H](C(N)=O)[C@@H](C)O)C(C)C)C(C)C [Compound 7] (H-YGGFLRRQAKVVT-NH2) | 42.1 ± 2.5 | 11.3 ± 1.7 | 3.76 ± 0.22 | 14.8 ± 2.6 | –
CC(C)[C@H](NC(=O)[C@H](CCCCN)NC(=O)[C@H](Cc1ccccc1)NC(=O)[C@H](CCC(N)=O)NC(=O)[C@H](CCCNC(=N)N)NC(=O)[C@H](CCCNC(=N)N)NC(=O)[C@H](C)NC(=O)[C@H](Cc1ccccc1)NC(=O)CNC(=O)CNC(=O)[C@@H](N)Cc1ccc(O)cc1)C(=O)N[C@H](C(=O)N[C@H](C(N)=O)[C@@H](C)O)C(C)C [Compound 3] (H-YGGFARRQFKVVT-NH2) | 265 ± 43 | 12.1 ± 5.2 | 20.3 ± 3.1 | 109 ± 34 | –
CC(C)C[C@H](NC(=O)[C@H](Cc1ccccc1)NC(=O)CNC(=O)CNC(=O)[C@@H](N)Cc1ccc(O)cc1)C(=O)N[C@@H](CCCNC(=N)N)C(=O)N[C@@H](CCCNC(=N)N)C(=O)N[C@@H](C)C(=O)N[C@@H](Cc1ccccc1)C(=O)N[C@@H](CCCCN)C(=O)N[C@H](C(=O)N[C@H](C(=O)N[C@H](C(N)=O)[C@@H](C)O)C(C)C)C(C)C [Compound 6] (H-YGGFLRRAFKVVT-NH2) | 54 ± 6.9 | 13 ± 0.96 | 4.32 ± 0.1 | 20.2 ± 10.8 | –
